In PMC12041767 (Journal of immunology (Baltimore, Md. : 1950), 2025):
Like-named read-outs stand apart in the source and are kept apart here.

What was measured:
TCR KK50.4 [1] = assay: HLA-E*01:03 tetramer (TM) staining of TCR KK50.4 transduced Jurkat cells; conditions: for Interaction of thermal exchanged HLA-E TM/peptide complex with TCR KK50.4, in words: thermal exchanged HLA-E*01:03 TM staining on Jurkat TCR KK50.4 cells, tested once, Figure 2C
HLA-E*01:03 = HLA-E*01:03 (Homo sapiens, UniProt P13747); type: binding; conditions: tested at least two times, median, Figure 1
TCR 6 = assay: HLA-E*01:03 tetramer (TM) staining of TCR 6 transduced Jurkat cells; conditions: for Interaction of thermal exchanged HLA-E TM/peptide complex with TCR 6, in words: thermal exchanged HLA-E*01:03 TM staining on Jurkat TCR 6 cells, tested once, Figure 2C-E
NKG2A/CD94 [2] = molecular target: T1, NKG2A/CD94 (Homo sapiens, UniProt P26715+Q13241); type: binding
T1 sequence (P26715 whole entry): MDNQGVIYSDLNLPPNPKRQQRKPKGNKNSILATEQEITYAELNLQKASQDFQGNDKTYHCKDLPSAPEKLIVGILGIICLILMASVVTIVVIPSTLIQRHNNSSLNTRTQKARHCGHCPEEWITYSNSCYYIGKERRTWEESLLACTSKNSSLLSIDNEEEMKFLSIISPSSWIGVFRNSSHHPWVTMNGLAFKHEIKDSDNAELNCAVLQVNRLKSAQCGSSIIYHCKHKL
T1 sequence (Q13241 whole entry): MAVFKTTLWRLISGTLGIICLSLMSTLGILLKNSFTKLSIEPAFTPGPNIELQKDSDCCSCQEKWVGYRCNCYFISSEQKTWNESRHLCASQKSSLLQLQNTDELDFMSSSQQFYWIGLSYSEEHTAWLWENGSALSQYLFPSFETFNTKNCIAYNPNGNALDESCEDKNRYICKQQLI

primary NKG2C+ NK cells = conditions: stimulation with HLA-E/peptide presenting cells, compared to other position 8 variants from clinical CMV isolates; cited from earlier work
NKG2A/CD94 [3] = molecular target: T1, NKG2A/CD94; conditions: cited from earlier work
TCR KK50.4 [4] = type: cell-based; conditions: 100 μM peptide, median, n=3 with two technical replicates, Figure 3B, C
[5] = S/P relative to positive control […] or […]
[6] = conventional HLA-E TMs folded with wildtype peptide, Figure 2B
[7] = UV exchange 1 hr at 4°C, ELISA absorbance 450 nm

Sequence: VMAARTLIL
- Interaction of thermal exchanged HLA-E TM/peptide complex with TCR KK50.4, in words (TCR KK50.4 [1]): interacted

Sequence: VLAPRTLLA [VLAPRTLLL Ala 9]
- Peptide binding affinity for HLA-E*01:03 (signal to positive, S/P, ratio), in words (HLA-E*01:03; [5]): could not bind

Sequence: VLAPRPLLL [VLAPRTLLL Pro 6]
- Peptide binding affinity for HLA-E*01:03 (signal to positive, S/P, ratio), in words (HLA-E*01:03; [5]): strong binders (key: The S/P thresholds to define binders or strong binders are 0.08 and 0.18, respectively; The S/P thresholds to define binders or strong binders are 0.08 and 0.18, respectively)

Sequence: VMAPRTLIW
- Interaction of thermal exchanged HLA-E TM/peptide complex with TCR 6, in words (TCR 6): not TCR 6
- Interaction of thermal exchanged HLA-E TM/peptide complex with TCR KK50.4, in words (TCR KK50.4 [1]): recognized by TCR KK50.4

Sequence: VLAPRRLLL [VLAPRTLLL Arg 6]
- Peptide binding affinity for HLA-E*01:03 (signal to positive, S/P, ratio), in words (HLA-E*01:03; [5]): could not bind

Sequence: VLAPRTLLL [reference compound]
- Peptide binding affinity for HLA-E*01:03 (signal to positive, S/P, ratio), in words (HLA-E*01:03; [5]): high affinity
- Interaction of conventional HLA-E TM with TCR 6, in words (TCR 6; [6]): can interact
- Interaction of conventional HLA-E TM with TCR KK50.4, in words (TCR KK50.4 [1]; [6]): could only interact with the HLA-E/[…] complex
- Interaction of conventional HLA-E TM with NKG2A/CD94, in words (NKG2A/CD94 [2]): can interact

Sequence: VLAPRTRLL [VLAPRTLLL Arg 7]
- Peptide binding affinity for HLA-E*01:03 (signal to positive, S/P, ratio), in words (HLA-E*01:03; [5]): could not bind

Sequence: VMAPRTLFL
- CD107a expression and cytokine secretion of primary NKG2C+ NK cells (primary NKG2C+ NK cells): highest level of CD107a expression and cytokine secretion
- Level of NKG2A/CD94 signaling among VL9-peptides (NKG2A/CD94 [3]): highest level of NKG2A/CD94 signaling

Sequence: VMAPRTPIL
- Peptide binding affinity for HLA-E*01:03 (signal to positive, S/P, ratio), in words (HLA-E*01:03; [7]): strong binders (The S/P thresholds to define binders or strong binders are 0.08 and 0.18, respectively)

Sequence: VLAPRTLGL [VLAPRTLLL Gly 8]
- Peptide binding affinity for HLA-E*01:03 (signal to positive, S/P, ratio), in words (HLA-E*01:03; [5]): could not bind

Sequence: VLAPRDLLL [VLAPRTLLL Asp 6]
- Peptide binding affinity for HLA-E*01:03 (signal to positive, S/P, ratio), in words (HLA-E*01:03; [5]): could not bind

Sequence: VMAPRPLIL
- Peptide binding affinity for HLA-E*01:03 (signal to positive, S/P, ratio), in words (HLA-E*01:03; [7]): strong binders (The S/P thresholds to define binders or strong binders are 0.08 and 0.18, respectively)
- Interaction of thermal exchanged HLA-E TM/peptide complex with TCR 6, in words (TCR 6): interacted

Sequence: VLAPRTPLL [VLAPRTLLL Pro 7]
- Peptide binding affinity for HLA-E*01:03 (signal to positive, S/P, ratio), in words (HLA-E*01:03; [5]): strong binders (key: The S/P thresholds to define binders or strong binders are 0.08 and 0.18, respectively; The S/P thresholds to define binders or strong binders are 0.08 and 0.18, respectively)

Sequence: VMAPRALIL
- Interaction of thermal exchanged HLA-E TM/peptide complex with TCR 6, in words (TCR 6): interacted

Sequence: VMAPRTLIF
- TCR KK50.4 triple reporter activation, in words (TCR KK50.4 [4]): still induced TCR KK50.4 activation

Sequence: VLAPRTDLL [VLAPRTLLL Asp 7]
- Peptide binding affinity for HLA-E*01:03 (signal to positive, S/P, ratio), in words (HLA-E*01:03; [5]): could not bind
